For one series, the target named is T1, Human recombinant ACE (Homo sapiens, UniProt P12821).
T1 construct: purchased R&D Systems, Minneapolis, Minn; 929-ZN-10
Kind of series: ACE activity assay with fluorogenic peptide V. Type of series: biochemical. The protocol:
(§1) Activity of ACE and ACE2 was measured with a Spectra Max Gemini EM Florescence Reader (Molecular Devices). The enzyme removes the c-terminal dinitrophenyl moiety that quenches the inherent fluorescence of its 7-methoxycoumain group, resulting in an increase in fluorescence in the presence of enzyme activity. Fluorescence was measured with excitation and emission spectra of 328 nm and 392 nm, respectively. Reaction mixtures were prepared in 100 μl volumes and different concentrations of compound were tested against 10 μM substrate. 10 nM enzyme in 100 mM NaCl, 75 mM Iris, 0.5 μM ZnCl2, at pH 7.4. Samples were read every 15-20 seconds for at least 30 minutes immediately after the addition of fluorogenic peptide substrate at 37° C. Assays, including controls, were performed in the presence of 1% dimethyl sulfoxide (DMSO). Although higher concentrations of NaCl increase the activity of ACE2 and ACE (Vickers et al. 2002), a low concentration of salt (100 mM NaCl) was used in the assays to allow for enhancement of enzymatic activity to be detectable. That is, using 1 M NaCl which gives a maximal enhancing effect from the Cl ions might not allow the compounds to further enhance the activity of the enzyme. The lower salt concentration should give the compounds available room for activation.
Controls in the presence and absence of DMSO and without compound were carried out to evaluate the effect of DMSO on the activity of ACE and ACE2. […]
Human recombinant ACE and ACE2 were obtained from R&D systems, Minneapolis, Minn., along with their respective fluorogenic substrates (ACE, catalog ID: 929-ZN-10; ACE2, 933-ZN-10; ACE substrate, fluorogenic peptide V, Mca RPPGFSAFK(Dnp)-OH, catalog ID: ES005; ACE2 substrate, fluorogenic peptide VI, Mca-YVADAPK(Dnp)-OH, ES007). Enzymatic activity was measured with a Spectra Max Gemini EM Fluorescence Reader (Molecular Devices) (Huentelman et al., Regul. Pept. 122:61-67 (2004)). […] Samples were read every 15-30 seconds for at least 30 minutes immediately after the addition of fluorogenic peptide substrates at 37° C. […]

In a further series the target is T2, human recombinant ACE2 (Homo sapiens, UniProt Q9BYF1).
T2 construct: purchased R&D Systems, Minneapolis, Minn; 933-ZN-10
T2 sequence (Q9BYF1 18-740 limits assumed): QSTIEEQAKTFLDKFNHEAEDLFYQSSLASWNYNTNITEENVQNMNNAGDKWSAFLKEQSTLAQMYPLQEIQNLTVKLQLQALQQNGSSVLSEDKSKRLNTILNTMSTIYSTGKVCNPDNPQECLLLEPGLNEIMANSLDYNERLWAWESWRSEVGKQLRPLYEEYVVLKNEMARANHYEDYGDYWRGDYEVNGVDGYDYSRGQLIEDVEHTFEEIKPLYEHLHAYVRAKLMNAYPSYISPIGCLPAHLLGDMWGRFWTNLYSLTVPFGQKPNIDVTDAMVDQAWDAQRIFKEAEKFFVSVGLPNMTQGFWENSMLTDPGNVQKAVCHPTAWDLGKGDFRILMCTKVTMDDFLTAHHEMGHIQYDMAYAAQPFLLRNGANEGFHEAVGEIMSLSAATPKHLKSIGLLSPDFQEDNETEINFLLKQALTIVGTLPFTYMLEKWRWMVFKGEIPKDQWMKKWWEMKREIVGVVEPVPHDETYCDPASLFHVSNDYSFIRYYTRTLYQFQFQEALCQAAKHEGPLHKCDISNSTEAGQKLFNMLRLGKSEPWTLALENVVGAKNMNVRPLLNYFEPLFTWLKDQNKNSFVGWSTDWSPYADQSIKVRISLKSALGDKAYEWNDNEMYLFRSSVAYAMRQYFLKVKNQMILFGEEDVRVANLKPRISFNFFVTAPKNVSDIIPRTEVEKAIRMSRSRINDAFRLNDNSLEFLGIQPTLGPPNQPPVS
The series can be described thus: ACE2 activity assay with fluorogenic peptide VI. Type of series: biochemical. How it is done:
as §1
Controls in the presence and absence of DMSO and without compound were carried out to evaluate the effect of DMSO on the activity of ACE and ACE2. Assays with no DMSO, 1% DMSO, and 2% DMSO were performed in identical conditions (i.e, pH, temperature, salt concentration, reaction mix volume and so on) to those of the experimental assays.
The experimental assays were corrected at each concentration since higher or lower concentrations of compounds affected the background signal in a concentration dependent manner.
Human recombinant ACE and ACE2 were obtained from R&D systems, Minneapolis, Minn., along with their respective fluorogenic substrates (ACE, catalog ID: 929-ZN-10; ACE2, 933-ZN-10; ACE substrate, fluorogenic peptide V, Mca RPPGFSAFK(Dnp)-OH, catalog ID: ES005; ACE2 substrate, fluorogenic peptide VI, Mca-YVADAPK(Dnp)-OH, ES007). Enzymatic activity was measured with a Spectra Max Gemini EM Fluorescence Reader (Molecular Devices) (Huentelman et al., Regul. Pept. 122:61-67 (2004)). Compounds were tested against 50 μM substrate. All assays were performed at least in triplicate in a reaction mixture containing 10 nM enzyme, 1 M NaCl, 75 mM Tris-HCl, 1% DMSO and 0.5 μM ZnCl2, at pH 7.4. Samples were read every 15-30 seconds for at least 30 minutes immediately after the addition of fluorogenic peptide substrates at 37° C. […] Enzyme activity was corrected for background.

Series [1] is described as follows: Solubility as observed during assays and formulation. Type of series: physicochemical. The source says:
Recombinant ACE and ACE2 were obtained in purified form from R&D Systems, Minneapolis, Minn. (catalog ID: 929-ZN-10 and 933-ZN-10, respectively). Substrates for ACE (fluorogenic peptide V, Mca-RPPGFSAFK(Dnp)-OH, catalog ID: ES005), and for ACE2 (fluorogenic peptide VI, Mca-YVADAPK(Dnp)-OH, catalog ID: ES007) were also obtained from R&D systems. Top scoring molecules were obtained from the National Cancer Institute (NCI) for functional testing. Dry compounds were resuspended in 100% DMSO to prepare 100 mM stock solutions, according to the amount of compound provided by the NCI and its molecular weight. Gentle heating to 60-80 C was carried out to assist their solubilization. Some compounds were further diluted to 50 mM stocks if clearly difficult to dissolve.
XNT was dissolved in saline at low pH (2-2.5) for in vivo studies. This compound was consistently prepared 24-48 hours before delivery in animals. XNT was prepared on a gram scale in six synthetic steps from 5-methoxysalicylic acid and m-chloroiodobenzene through modifications of a published procedure (Archer et al., J. Med. Chem. 26:1240-1246 (1983); Archer et al., J. Med. Chem. 31:254-260 (1988).

Setting [2] is: listed as resorcinolnaphthalein.

“Also recorded” adds a separate entry of the source. Read-outs that look alike come from different tables or passages of the source.

T1 sequence (P12821 30-1261 limits assumed): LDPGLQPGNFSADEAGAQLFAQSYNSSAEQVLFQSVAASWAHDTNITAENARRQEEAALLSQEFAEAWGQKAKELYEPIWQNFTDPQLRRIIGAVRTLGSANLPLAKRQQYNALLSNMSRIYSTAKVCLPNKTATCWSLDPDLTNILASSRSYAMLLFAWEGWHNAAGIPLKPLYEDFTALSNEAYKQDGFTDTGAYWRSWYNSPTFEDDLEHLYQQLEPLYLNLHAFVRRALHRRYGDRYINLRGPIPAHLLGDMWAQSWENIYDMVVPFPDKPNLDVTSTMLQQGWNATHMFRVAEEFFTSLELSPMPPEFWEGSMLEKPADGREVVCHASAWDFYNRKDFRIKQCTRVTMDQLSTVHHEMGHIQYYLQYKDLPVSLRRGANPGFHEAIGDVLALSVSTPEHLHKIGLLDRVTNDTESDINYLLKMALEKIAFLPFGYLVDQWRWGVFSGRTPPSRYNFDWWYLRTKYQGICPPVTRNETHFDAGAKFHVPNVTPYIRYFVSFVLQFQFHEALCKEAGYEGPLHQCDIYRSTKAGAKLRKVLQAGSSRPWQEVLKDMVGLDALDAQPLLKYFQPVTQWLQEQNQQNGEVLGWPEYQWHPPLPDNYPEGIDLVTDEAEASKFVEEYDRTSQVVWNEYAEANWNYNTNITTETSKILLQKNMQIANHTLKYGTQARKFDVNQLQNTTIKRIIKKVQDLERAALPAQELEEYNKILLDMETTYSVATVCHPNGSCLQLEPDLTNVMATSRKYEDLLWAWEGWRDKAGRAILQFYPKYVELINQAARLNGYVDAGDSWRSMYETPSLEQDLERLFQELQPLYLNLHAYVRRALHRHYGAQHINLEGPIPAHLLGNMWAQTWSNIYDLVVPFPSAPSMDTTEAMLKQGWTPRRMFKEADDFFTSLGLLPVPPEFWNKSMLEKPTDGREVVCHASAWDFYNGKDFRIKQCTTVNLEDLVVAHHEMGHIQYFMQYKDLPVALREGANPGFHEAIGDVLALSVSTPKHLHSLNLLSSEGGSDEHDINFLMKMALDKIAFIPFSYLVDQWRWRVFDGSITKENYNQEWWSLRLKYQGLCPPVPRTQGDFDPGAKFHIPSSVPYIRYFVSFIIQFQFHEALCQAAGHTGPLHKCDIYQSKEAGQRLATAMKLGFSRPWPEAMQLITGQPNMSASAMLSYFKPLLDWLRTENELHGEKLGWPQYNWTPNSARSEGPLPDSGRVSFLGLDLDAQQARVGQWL

Take `O=C1OC2(c3ccc(O)cc3Oc3cc(O)ccc32)c2cccc3cccc1c23` [Compound 6, resorcinalnaphthalein]: the ACE activity result is reported as “do not enhance ACE activity” on Human recombinant ACE, “did not activate; also recorded: not enhanced” at Human recombinant ACE (50 or 100 μM compound) and “did not significantly affect” on Human recombinant ACE (setting [2]). The “ACE2 activity, dose response” value is reported as “did not show the same dose response” on human recombinant ACE2 and “dose-dependent manner” at human recombinant ACE2 (setting [2]). Further, the ACE2 activity result on human recombinant ACE2 (100 μM compound) was “ACE2-specific enhancement”; at human recombinant ACE2 (500 μM compound), “returned down to control level”; at human recombinant ACE2 (20, 50 and 100 μM compound) it was “activated ACE2 identically; also recorded: identical curves”; on human recombinant ACE2 (concentrations higher than 100 μM), “inhibited ACE2”. Further, the “increase of ACE2 activity” value on human recombinant ACE2 (100 μM compound, FIG. 3, 40 minute time course) is reported as “about 2 fold”; at human recombinant ACE2 (initial functional screening), “about 2 fold”. Besides, the “enhancement of ACE2 enzymatic activity” value on human recombinant ACE2 (confirmation assay, 1% DMSO) amounted to 2 fold. For the same compound, the solubility entry in series [1] is reported as “significantly more insoluble”.

The values are drawn from patent US20120142723A1, “ACE2 ACTIVATOR COMPOUNDS AND METHODS OF USE THEREOF” (University of Florida Research Foundation, Inc., priority 2006, published 2012).
